# Where “and” joins values, the source holds several entries; their conditions need not be identical. Equal entries are not always repeated. Where two headings read alike, the source gives them in different places.
# How the values were obtained:
# wheat scab [1] = format: in vivo; conditions: Carbendazim 40 g a.i. per mu
# Fusarium asiaticum = experiment: microbe, parasite or virus in culture; format: cell-based
# wheat scab [2] = format: in vivo; conditions: Carbendazim 40 g a.i. per mu, control agent
# wheat scab [3] = format: in vivo
# Fusarium graminearum = experiment: microbe, parasite or virus in culture; format: cell-based; conditions: for Average Fungal Colony Diameter F.g: sensitive strains
# rust [4] = system: rust; parameters: species or system wheat; conditions: in vivo
# [5] = parameters: species or system wheat; conditions: in vivo
# leaf blight [6] = system: leaf blight; parameters: species or system wheat; conditions: in vivo
# wheat scab [7] = format: in vivo; remark: listed apart in the source
# [8] = format: in vivo, wheat; conditions: in vivo
# wheat scab [9] = format: in vivo; remark: listed apart in the source
# wheat scab [10] = format: in vivo; remark: listed apart in the source
# [11] = system: Fusarium graminearum and Fusarium asiaticum; experiment: organism not typed; format: cell-based; conditions: read-out: inhibitory effect on the growth of the two types of Fusaria
# powdery mildew [12] = format: in vivo, wheat; conditions: in vivo
# leaf blight [13] = format: in vivo, wheat; conditions: in vivo
# powdery mildew [14] = format: in vivo, wheat; conditions: in vivo; remark: listed apart in the source
# Tri5 gene = format: cell-based, Fusarium asiaticum
# wheat scab [15] = format: in vivo; conditions: Preparation 100 (mL/mu); Jinggangmycin 20, Tebuconazole 0 g ai. agent/mu
# powdery mildew [16] = format: in vivo, wheat; conditions: in vivo; remark: listed apart in the source
# rust [17] = format: in vivo, wheat; conditions: in vivo
# powdery mildew [18] = format: in vivo, wheat; conditions: in vivo; remark: listed apart in the source
# rust [19] = system: rust; parameters: species or system wheat; conditions: in vivo; remark: listed apart in the source
# powdery mildew [20] = format: in vivo, wheat; conditions: in vivo; remark: listed apart in the source
# [21] = format: in vivo, wheat; conditions: in vivo; remark: listed apart in the source
# rust [22] = system: rust; parameters: species or system barley; conditions: in vivo
# leaf rust fungus = system: leaf rust fungus; parameters: species or system wheat; conditions: in vivo
# rust [23] = format: in vivo, wheat; conditions: in vivo; remark: listed apart in the source
# leaf blight [24] = system: leaf blight; parameters: species or system wheat; conditions: in vivo; remark: listed apart in the source
# wheat scab [25] = format: in vivo; conditions: Preparation 100 g/mu; Jinggangmycin 20, Tebuconazole 0 g ai. agent/mu
# rust [26] = format: in vivo, wheat; conditions: in vivo; remark: listed apart in the source
# leaf blight [27] = format: in vivo, wheat; conditions: in vivo; remark: listed apart in the source
# [28] = system: carbendazim-resistant Fusarium asiaticum; experiment: microbe, parasite or virus in culture; format: cell-based; conditions: for inhibition at 1 µg/mL / inhibition at 10 µg/mL / inhibition at 100 µg/mL / inhibition at 1000 µg/mL / inhibition at 10000 µg/mL: Fusarium asiaticum, read-out: DON Biosynthesis Inhibition Rate
# powdery mildew fungus = system: powdery mildew fungus; parameters: species or system wheat; conditions: in vivo
# leaf blight [29] = format: in vivo, wheat; conditions: in vivo; remark: listed apart in the source
# rust [30] = format: in vivo, wheat; conditions: in vivo; remark: listed apart in the source
smiles,measurement,setting,value
"COC(=O)Nc1nc2ccccc2[nH]1 [Carbendazim, carbendazim]",Disease Index Prevention Effect % Head Blight,wheat scab [1],38.60%
same,EC50,"Fusarium asiaticum; Fusarium asiaticum, read-out: Median Effective Concentration (EC50) for Growth Inhibition",0.45 µg/mL
same,Disease Index Prevention Effect % Actual Prevention Effect,wheat scab [2],67.5%
same,Disease Index Prevention Effect % Head Blight,wheat scab [3]; Carbendazim 50 g a.i.,49.04%
same,EC50,"Fusarium graminearum; Fusarium graminearum, read-out: Median Effective Concentration (EC50) for Growth Inhibition",0.45 µg/mL
same,Disease Index Prevention Effect % Rust,rust [4],61.20%
same,Thousand Kernel Weight,[5],41.60 g
same,Disease Index Prevention Effect % Leaf Blight,leaf blight [6],48.50%
same,Disease Index Prevention Effect % Head Blight,wheat scab [7]; 80 g of 50% of Carbendazim Wettable Powder,64.6%
"OCC1=CC(N[C@H]2C[C@H](CO)[C@@H](OC3O[C@H](CO)[C@@H](O)[C@H](O)[C@H]3O)C(O)[C@H]2O)[C@H](O)[C@@H](O)C1O (stereo partly shown) [Jinggangmycin, jinggangmycin A]",Thousand Kernel Weight,[8],38.5 g and 40.1 g and 37.8 g and 41.5 g
same,Disease Index Prevention Effect % Head Blight,wheat scab [9]; Jinggangmycin 6 g ai. agent/mu,0%
same,Disease Index Prevention Effect % Head Blight,wheat scab [9]; Jinggangmycin 9 g ai. agent/mu,17.6%
same,Disease Index Prevention Effect % Head Blight,wheat scab [9]; Jinggangmycin 15 g ai. agent/mu,28.3%
same,Disease Index Prevention Effect % Head Blight,wheat scab [9]; Jinggangmycin 21 g ai. agent/mu,35.4%
same,Disease Index Prevention Effect % Head Blight,"wheat scab [10]; Preparation 15 g/mu, Jinggangmycin 3 g ai. agent/mu",0%
same,Disease Index Prevention Effect % Head Blight,"wheat scab [10]; Preparation 37.5 g/mu, Jinggangmycin 7.5 g ai. agent/mu",24.2%
same,Disease Index Prevention Effect % Head Blight,"wheat scab [10]; Preparation 50 g/mu, Jinggangmycin 10 g ai. agent/mu",32.4%
same,inhibition at 50 µg/mL,[11],6.5 to 7.8%
same,Disease Index Prevention Effect % Powdery Mildew,powdery mildew [12],10.6%
same,Average Fungal Colony Diameter F.a,Fusarium asiaticum,76.3 mm and 75.6 mm and 69.4 mm
same,inhibition at 50 µg/mL,"Fusarium asiaticum; Fusarium asiaticum, read-out: Growth Inhibition Rate F.a",7.8%
same,Disease Index Prevention Effect % Leaf Blight,leaf blight [13],7.8%
same,Disease Index Prevention Effect % Powdery Mildew,powdery mildew [14],8.6% and 6.6% and 3% and 1.8%
same,Disease Index Prevention Effect % Head Blight,wheat scab [3]; Jinggangmycin 0.5 g ai. agent/mu,0.0%
same,Disease Index Prevention Effect % Head Blight,wheat scab [3]; Jinggangmycin 1.0 g ai. agent/mu,0.0%
same,Disease Index Prevention Effect % Head Blight,wheat scab [3]; Jinggangmycin 1.3 g ai. agent/mu,0.0%
same,Disease Index Prevention Effect % Head Blight,wheat scab [3]; Jinggangmycin 2.5 g ai. agent/mu,0.0%
same,Disease Index Prevention Effect % Head Blight,wheat scab [3]; Jinggangmycin 5.0 g ai. agent/mu,0.0%
same,Disease Index Prevention Effect % Head Blight,wheat scab [3]; Jinggangmycin 8.0 g ai. agent/mu,17.9%
same,Disease Index Prevention Effect % Head Blight,wheat scab [3]; Jinggangmycin 14.0 g ai. agent/mu,23.7%
same,Disease Index Prevention Effect % Head Blight,wheat scab [3]; Jinggangmycin 16.0 g ai. agent/mu,27.8%
same,Disease Index Prevention Effect % Head Blight,wheat scab [3]; Jinggangmycin 28.0 g ai. agent/mu,29.6%
same,inhibition at 50 µg/mL,"Fusarium graminearum; Fusarium graminearum, read-out: Growth Inhibition Rate F.g",6.6%
same,Average Fungal Colony Diameter F.g,Fusarium graminearum; Jinggangmycin A 0.1 μg/mL,76.3 mm
same,Average Fungal Colony Diameter F.g,Fusarium graminearum; Jinggangmycin A 1.0 μg/mL,76.2 mm
same,Average Fungal Colony Diameter F.g,Fusarium graminearum; Jinggangmycin A 10.0 μg/mL,75.4 mm
same,Average Fungal Colony Diameter F.g,Fusarium graminearum; Jinggangmycin A 50.0 μg/mL,70.3 mm
same,Rate of Inhibition on Relative Expression Level of Tri5 Gene,Tri5 gene,59% and 66% and 84% and 87% and 90%
same,Disease Index Prevention Effect % Head Blight,wheat scab [15],34.2%
same,Disease Index Prevention Effect % Powdery Mildew,powdery mildew [16],7.3% and 4.4% and 4.5% and 0%
same,Disease Index Prevention Effect % Rust,rust [17],8.9% and 0%
same,Disease Index Prevention Effect % Powdery Mildew,powdery mildew [18],8.5% and 0%
same,Disease Index Prevention Effect % Rust,rust [19],5.1% and 3.6% and 0%
same,Disease Index Prevention Effect % Powdery Mildew,powdery mildew [20],10.6%
same,Thousand Kernel Weight,[21],37.5 g and 38.6 g and 37.6 g
same,Disease Index Prevention Effect % Rust,rust [22],0%
same,Incidence Prevention Effect % Rust,leaf rust fungus,0% and 4.5%
same,Disease Index Prevention Effect % Rust,rust [23],6.8% and 6.5% and 0%
same,Disease Index Prevention Effect % Leaf Blight,leaf blight [24],8.5% and 7.9% and 0%
same,Disease Index Prevention Effect % Head Blight,wheat scab [25],40.2%
same,Disease Index Prevention Effect % Rust,rust [26],6.5%
same,Disease Index Prevention Effect % Leaf Blight,leaf blight [27],8.6% and 8.8% and 5.8%
same,inhibition at 1 µg/mL,[28]; 168 h,28.6%
same,inhibition at 10 µg/mL,[28]; 168 h,35.5%
same,inhibition at 100 µg/mL,[28]; 168 h,45.2%
same,inhibition at 1000 µg/mL,[28]; 168 h,65.5%
same,inhibition at 10000 µg/mL,[28]; 168 h,75.9%
same,inhibition at 1 µg/mL,[28]; 336 h,1.7%
same,inhibition at 10 µg/mL,[28]; 336 h,7.87%
same,inhibition at 100 µg/mL,[28]; 336 h,29.9%
same,inhibition at 1000 µg/mL,[28]; 336 h,57%
same,inhibition at 10000 µg/mL,[28]; 336 h,75.4%
same,Toxin Production Capability of Hyphae,"[28]; Jinggangmycin 1 μg/ml, 7 days of culture",62.82 μgDON/g by dry weight of hyphae
same,Toxin Production Capability of Hyphae,"[28]; Jinggangmycin 1 μg/ml, 14 days of culture",51.43 μgDON/g by dry weight of hyphae
same,Toxin Production Capability of Hyphae,"[28]; Jinggangmycin 10 μg/ml, 7 days of culture",56.76 μgDON/g by dry weight of hyphae
same,Toxin Production Capability of Hyphae,"[28]; Jinggangmycin 10 μg/ml, 14 days of culture",48.20 μgDON/g by dry weight of hyphae
same,Toxin Production Capability of Hyphae,"[28]; Jinggangmycin 100 μg/ml, 7 days of culture",48.23 μgDON/g by dry weight of hyphae
same,Toxin Production Capability of Hyphae,"[28]; Jinggangmycin 100 μg/ml, 14 days of culture",36.68 μgDON/g by dry weight of hyphae
same,Toxin Production Capability of Hyphae,"[28]; Jinggangmycin 1000 μg/ml, 7 days of culture",30.35 μgDON/g by dry weight of hyphae
same,Toxin Production Capability of Hyphae,"[28]; Jinggangmycin 1000 μg/ml, 14 days of culture",22.52 μgDON/g by dry weight of hyphae
same,Toxin Production Capability of Hyphae,"[28]; Jinggangmycin 10000 μg/ml, 7 days of culture",21.23 μgDON/g by dry weight of hyphae
same,Toxin Production Capability of Hyphae,"[28]; Jinggangmycin 10000 μg/ml, 14 days of culture",12.85 μgDON/g by dry weight of hyphae
same,Incidence Prevention Effect % Powdery Mildew,powdery mildew fungus,0% and 6.5%
same,Disease Index Prevention Effect % Leaf Blight,leaf blight [29],7.8%
same,Disease Index Prevention Effect % Head Blight,"wheat scab [7]; Preparation 30 g/mu, Jinggangmycin 6 g ai. agent/mu",7.4%
same,Disease Index Prevention Effect % Head Blight,"wheat scab [7]; Preparation 45 g/mu, Jinggangmycin 9 g ai. agent/mu",9.4%
same,Disease Index Prevention Effect % Head Blight,"wheat scab [7]; Preparation 60 g/mu, Jinggangmycin 12 g ai. agent/mu",10.2%
same,Disease Index Prevention Effect % Head Blight,"wheat scab [7]; Preparation 75 g/mu, Jinggangmycin 15 g ai. agent/mu",34.2%
same,Disease Index Prevention Effect % Rust,rust [30],6.5%
